According to the NIST ThermoML archive (doi:10.1021/acs.jced.7b00898):
Numbers after ± are expanded uncertainties.

Assay: xn = mol fraction of the nth substance listed
Conditions: 100 kPa, Liquid; for electrical conductivity: Alternating current cell with electrodes; for viscosity: Falling or rolling sphere viscometry; for mass density: Vibrating tube method

C[n+]1ccn(CCCC#N)c1.F[B-](F)(F)F [1-butyronitrile-3-methylimidazolium tetrafluoroborate] + CC#N
Conditions | electrical conductivity [S/m] | mass density [kg/m3] | viscosity [mPa·s]
288.15 K, x1 = 0.1004 | 3.71 ± 0.5 | 951.03 ± 1.9 | 1.783 ± 0.18
288.15 K, x1 = 0.2003 | 2.62 ± 0.41 | 1058.56 ± 2.1 | 5.545 ± 0.56
288.15 K, x1 = 0.3013 | 1.68 ± 0.31 | 1131.24 ± 2.3 | 13.17 ± 1.3
288.15 K, x1 = 0.3996 | 1.05 ± 0.24 | 1179.83 ± 2.4 | 30.38 ± 3.1
288.15 K, x1 = 0.4999 | 0.558 ± 0.17 | 1218.22 ± 2.5 | 72.81 ± 7.3
288.15 K, x1 = 0.5996 | 0.365 ± 0.14 | 1248.27 ± 2.5 | 105.8 ± 11
288.15 K, x1 = 0.7001 | 0.28 ± 0.12 | 1271.85 ± 2.6 | 150.9 ± 16
288.15 K, x1 = 0.8024 | 0.157 ± 0.093 | 1289.62 ± 2.6 | 287 ± 33
288.15 K, x1 = 0.8885 | 0.126 ± 0.083 | 1302.35 ± 2.6 | 372.8 ± 44
288.15 K, x1 = 1 | 0.058 ± 0.056 | 1316.07 ± 2.7 | 590.6 ± 74
293.15 K, x1 = 0.1004 | 3.98 ± 0.53 | 946.91 ± 1.9 | 1.645 ± 0.17
293.15 K, x1 = 0.2003 | 2.89 ± 0.43 | 1054.28 ± 2.1 | 4.901 ± 0.49
293.15 K, x1 = 0.3013 | 1.93 ± 0.34 | 1126.73 ± 2.3 | 11.15 ± 1.1
293.15 K, x1 = 0.3996 | 1.24 ± 0.26 | 1175.56 ± 2.4 | 24.74 ± 2.5
293.15 K, x1 = 0.4999 | 0.685 ± 0.19 | 1214.12 ± 2.4 | 56.55 ± 5.7
293.15 K, x1 = 0.5996 | 0.467 ± 0.16 | 1244.16 ± 2.5 | 80.64 ± 8.2
293.15 K, x1 = 0.7001 | 0.352 ± 0.14 | 1268.21 ± 2.6 | 113.9 ± 12
293.15 K, x1 = 0.8024 | 0.208 ± 0.11 | 1286.11 ± 2.6 | 207.7 ± 23
293.15 K, x1 = 0.8885 | 0.174 ± 0.098 | 1298.72 ± 2.6 | 266.5 ± 30
293.15 K, x1 = 1 | 0.085 ± 0.068 | 1312.33 ± 2.7 | 417.9 ± 50
298.15 K, x1 = 0.1004 | 4.28 ± 0.55 | 942.92 ± 1.9 | 1.52 ± 0.15
298.15 K, x1 = 0.2003 | 3.2 ± 0.46 | 1049.89 ± 2.1 | 4.361 ± 0.44
298.15 K, x1 = 0.3013 | 2.21 ± 0.37 | 1122.41 ± 2.2 | 9.572 ± 0.96
298.15 K, x1 = 0.3996 | 1.46 ± 0.29 | 1171.47 ± 2.4 | 20.18 ± 2
298.15 K, x1 = 0.4999 | 0.834 ± 0.21 | 1210.15 ± 2.4 | 45.13 ± 4.5
298.15 K, x1 = 0.5996 | 0.588 ± 0.18 | 1240.19 ± 2.5 | 62.96 ± 6.3
298.15 K, x1 = 0.7001 | 0.47 ± 0.16 | 1264.41 ± 2.5 | 87.6 ± 8.9
298.15 K, x1 = 0.8024 | 0.286 ± 0.12 | 1282.71 ± 2.6 | 154.3 ± 16
298.15 K, x1 = 0.8885 | 0.236 ± 0.11 | 1294.92 ± 2.6 | 195.6 ± 21
298.15 K, x1 = 1 | 0.123 ± 0.082 | 1308.61 ± 2.7 | 302.6 ± 35
303.15 K, x1 = 0.1004 | 4.56 ± 0.58 | 938.82 ± 1.9 | 1.412 ± 0.14
303.15 K, x1 = 0.2003 | 3.51 ± 0.49 | 1045.59 ± 2.1 | 3.908 ± 0.39
303.15 K, x1 = 0.3013 | 2.5 ± 0.4 | 1117.84 ± 2.2 | 8.303 ± 0.83
303.15 K, x1 = 0.3996 | 1.7 ± 0.32 | 1167.21 ± 2.3 | 16.91 ± 1.7
303.15 K, x1 = 0.4999 | 0.997 ± 0.23 | 1205.98 ± 2.4 | 36.59 ± 3.7
303.15 K, x1 = 0.5996 | 0.719 ± 0.2 | 1236.29 ± 2.5 | 50.09 ± 5
303.15 K, x1 = 0.7001 | 0.585 ± 0.18 | 1260.73 ± 2.5 | 68.7 ± 6.9
303.15 K, x1 = 0.8024 | 0.372 ± 0.14 | 1279.28 ± 2.6 | 117.1 ± 12
303.15 K, x1 = 0.8885 | 0.308 ± 0.13 | 1291.38 ± 2.6 | 147 ± 16
303.15 K, x1 = 1 | 0.171 ± 0.097 | 1304.81 ± 2.6 | 223.3 ± 25
308.15 K, x1 = 0.1004 | 4.84 ± 0.6 | 934.73 ± 1.9 | 1.315 ± 0.13
308.15 K, x1 = 0.2003 | 3.83 ± 0.51 | 1041.36 ± 2.1 | 3.529 ± 0.35
308.15 K, x1 = 0.3013 | 2.8 ± 0.42 | 1113.43 ± 2.2 | 7.266 ± 0.73
308.15 K, x1 = 0.3996 | 1.97 ± 0.34 | 1163.02 ± 2.3 | 14.47 ± 1.4
308.15 K, x1 = 0.4999 | 1.19 ± 0.26 | 1201.89 ± 2.4 | 30.15 ± 3
308.15 K, x1 = 0.5996 | 0.87 ± 0.22 | 1232.29 ± 2.5 | 40.62 ± 4.1
308.15 K, x1 = 0.7001 | 0.719 ± 0.2 | 1257.04 ± 2.5 | 54.9 ± 5.5
308.15 K, x1 = 0.8024 | 0.475 ± 0.16 | 1275.69 ± 2.6 | 90.99 ± 9.3
308.15 K, x1 = 0.8885 | 0.392 ± 0.15 | 1287.73 ± 2.6 | 112.9 ± 12
308.15 K, x1 = 1 | 0.231 ± 0.11 | 1301.05 ± 2.6 | 169.9 ± 18
313.15 K, x1 = 0.1004 | 5.13 ± 0.62 | 930.78 ± 1.9 | 1.228 ± 0.12
313.15 K, x1 = 0.2003 | 4.16 ± 0.54 | 1037.03 ± 2.1 | 3.204 ± 0.32
313.15 K, x1 = 0.3013 | 3.1 ± 0.45 | 1109.04 ± 2.2 | 6.436 ± 0.64
313.15 K, x1 = 0.3996 | 2.27 ± 0.37 | 1158.93 ± 2.3 | 12.49 ± 1.2
313.15 K, x1 = 0.4999 | 1.4 ± 0.28 | 1197.89 ± 2.4 | 25.23 ± 2.5
313.15 K, x1 = 0.5996 | 1.04 ± 0.24 | 1228.43 ± 2.5 | 33.47 ± 3.4
313.15 K, x1 = 0.7001 | 0.87 ± 0.22 | 1253.43 ± 2.5 | 44.63 ± 4.5
313.15 K, x1 = 0.8024 | 0.599 ± 0.18 | 1272.33 ± 2.6 | 71.79 ± 7.2
313.15 K, x1 = 0.8885 | 0.491 ± 0.16 | 1284.14 ± 2.6 | 88.12 ± 8.9
313.15 K, x1 = 1 | 0.305 ± 0.13 | 1297.32 ± 2.6 | 128.7 ± 13
318.15 K, x1 = 0.1004 | 5.41 ± 0.65 | 926.61 ± 1.9 | 1.153 ± 0.12
318.15 K, x1 = 0.2003 | 4.49 ± 0.57 | 1032.73 ± 2.1 | 2.936 ± 0.29
318.15 K, x1 = 0.3013 | 3.4 ± 0.48 | 1104.71 ± 2.2 | 5.741 ± 0.58
318.15 K, x1 = 0.3996 | 2.59 ± 0.4 | 1154.62 ± 2.3 | 10.85 ± 1.1
318.15 K, x1 = 0.4999 | 1.63 ± 0.31 | 1193.83 ± 2.4 | 21.38 ± 2.1
318.15 K, x1 = 0.5996 | 1.22 ± 0.26 | 1224.39 ± 2.5 | 28 ± 2.8
318.15 K, x1 = 0.7001 | 1.04 ± 0.24 | 1249.69 ± 2.5 | 36.82 ± 3.7
318.15 K, x1 = 0.8024 | 0.734 ± 0.2 | 1268.86 ± 2.6 | 57.48 ± 5.8
318.15 K, x1 = 0.8885 | 0.603 ± 0.18 | 1280.51 ± 2.6 | 70.08 ± 7
318.15 K, x1 = 1 | 0.393 ± 0.15 | 1293.59 ± 2.6 | 100.6 ± 10
323.15 K, x1 = 0.1004 | 5.69 ± 0.67 | 922.4 ± 1.9 | 1.084 ± 0.11
323.15 K, x1 = 0.2003 | 4.82 ± 0.6 | 1028.51 ± 2.1 | 2.695 ± 0.27
323.15 K, x1 = 0.3013 | 3.7 ± 0.5 | 1100.31 ± 2.2 | 5.152 ± 0.52
323.15 K, x1 = 0.3996 | 2.95 ± 0.44 | 1150.56 ± 2.3 | 9.38 ± 0.94
323.15 K, x1 = 0.4999 | 1.87 ± 0.33 | 1189.85 ± 2.4 | 17.96 ± 1.8
323.15 K, x1 = 0.5996 | 1.42 ± 0.28 | 1220.51 ± 2.5 | 23.76 ± 2.4
323.15 K, x1 = 0.7001 | 1.22 ± 0.26 | 1245.99 ± 2.5 | 30.77 ± 3.1
323.15 K, x1 = 0.8024 | 0.872 ± 0.22 | 1265.38 ± 2.5 | 47.05 ± 4.7
323.15 K, x1 = 0.8885 | 0.73 ± 0.2 | 1276.87 ± 2.6 | 56.76 ± 5.7
323.15 K, x1 = 1 | 0.498 ± 0.17 | 1289.86 ± 2.6 | 79.82 ± 8.1
